In one assay the target is T1, ORL1 receptor (Homo sapiens, UniProt P41146).
T1 construct: expressed in transfected cells; host or cells: CHO (recombinant CHO-ORL1 cells), membranes
Description: ORL1 receptor binding assay with 3H-nociceptin/orphanin FQ (WGA-SPA beads). The settings on record: c=1 μM test substance; 0.5 nM 3H-nociceptin/orphanin FQ; membranes of recombinant CHO-ORL1 cells. Put shortly: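 Affinity given as nanomolar Ki or as % inhibition at c=1 μM. Membranes of CHO cells expressing recombinant ORL1 (20 μg protein) were incubated one hour at room temperature with 0.5 nM 3H-nociceptin/orphanin FQ in Hepes 50 mM, pH 7.4, plus MgCl2 and EDTA; bound ligand detected by SPA bead scintillation counting.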

Another assay deals with T2, human μ-opiate receptor (Homo sapiens, UniProt P35372).
T2 construct: purchased NEN, Zaventem, Belgium RB-HOM; host or cells: CHO-K1 cells (membrane preparation)
Put plainly: μ-opiate receptor binding assay with [3H] naloxone (WGA-SPA beads). The settings on record: 1 μmol/l test substance, 1 nmol/l [3H] naloxone, CHO-K1 cell membranes expressing human μ-opiate receptor. Put shortly: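 Scintillation proximity readout: [3H]naloxone (1 nmol/l) displacement measured after 90 min, room temperature, on human μ-receptor CHO-K1 membranes in Tris-HCl/azide/BSA buffer; 25 μmol/l naloxone defined non-specific binding. Values are % specific-binding inhibition at 1 μmol/l, or Ki from IC50 (Cheng-Prusoff).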

T2 sequence (P35372 whole entry): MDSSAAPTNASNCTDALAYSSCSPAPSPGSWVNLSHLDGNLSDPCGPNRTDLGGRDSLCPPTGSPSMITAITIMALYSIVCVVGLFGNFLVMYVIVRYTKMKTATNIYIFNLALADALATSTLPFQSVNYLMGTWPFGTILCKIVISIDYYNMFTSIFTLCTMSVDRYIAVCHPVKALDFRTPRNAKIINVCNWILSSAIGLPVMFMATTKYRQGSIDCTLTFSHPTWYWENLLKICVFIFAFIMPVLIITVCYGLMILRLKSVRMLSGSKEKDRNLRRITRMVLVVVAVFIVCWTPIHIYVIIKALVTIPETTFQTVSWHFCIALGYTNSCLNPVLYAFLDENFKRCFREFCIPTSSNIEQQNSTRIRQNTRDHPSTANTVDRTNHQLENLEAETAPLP
T1 sequence (P41146 whole entry): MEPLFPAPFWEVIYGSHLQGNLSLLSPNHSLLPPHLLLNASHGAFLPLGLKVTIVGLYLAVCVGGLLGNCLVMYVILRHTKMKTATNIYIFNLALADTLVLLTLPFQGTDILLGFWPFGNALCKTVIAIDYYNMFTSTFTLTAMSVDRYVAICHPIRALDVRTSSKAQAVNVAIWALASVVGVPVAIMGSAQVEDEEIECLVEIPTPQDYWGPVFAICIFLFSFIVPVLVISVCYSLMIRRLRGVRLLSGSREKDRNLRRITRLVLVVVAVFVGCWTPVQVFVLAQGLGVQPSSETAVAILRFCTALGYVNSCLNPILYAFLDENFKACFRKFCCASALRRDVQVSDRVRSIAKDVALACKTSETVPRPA

For `CC(C)C(C(=O)N1CCC(c2ccccc2)(N(C)C)CC1)N(C)C(=O)Cc1c[nH]c2ccc(Br)cc12` (stereo not shown) [Example 83, 2-(5-bromo-1H-indol-3-yl)-N-(1-(4-(dimethylamino)-4-phenylpiperidin-1-yl)-3-methyl-1-oxobutan-2-yl)-N-methylacetamide], the inhibition at 1 µM on ORL1 receptor was 95%; at human μ-opiate receptor it was 84%.

Consider `CC(C)C(CC(=O)NCCC(=O)N1CCC(c2ccccc2)(N(C)C)CC1)c1c[nH]c2ccccc12` (stereo not shown) [Example 84, N-(3-(4-(dimethylamino)-4-phenylpiperidin-1-yl)-3-oxopropyl)-3-(1H-indol-3-yl)-4-methylpentanamide], for which the inhibition at 1 µM amounted to 95% on ORL1 receptor and 100% on human μ-opiate receptor.

`CC(C)C(CC(=O)NC(CC(=O)N1CCC(c2cccs2)(N(C)C)CC1)c1ccccc1)c1c[nH]c2ccccc12` (stereo not shown) [Example 85, N-(3-(4-(dimethylamino)-4-(thiophen-2-yl)piperidin-1-yl)-3-oxo-1-phenylpropyl)-3-(1H-indol-3-yl)-4-methylpentanamide]: the inhibition at 1 µM was 94% on ORL1 receptor and 101% at human μ-opiate receptor.

For `CN(C)C1(c2ccccc2)CCN(C(=O)C2CN(C(=O)Cc3c[nH]c4cc(F)ccc34)c3ccccc32)CC1` (stereo not shown) [Example 86, 1-(3-(4-(dimethylamino)-4-phenylpiperidine-1-carbonyl)indolin-1-yl)-2-(6-fluoro-1H-indol-3-yl)ethanone], the inhibition at 1 µM on ORL1 receptor came out at 94%; at human μ-opiate receptor, 88%.

For the compound `CC(C)C(CC(=O)N(C)CCN1CCC(c2ccccc2)(N(C)C)CC1)c1c[nH]c2ccccc12` (stereo not shown) [Example 87, N-(2-(4-(dimethylamino)-4-phenylpiperidin-1-yl)ethyl)-3-(1H-indol-3-yl)-N,4-dimethylpentanamide], the “% Inhibition (ORL1) at 1 μM” value at ORL1 receptor was found to be 93%. Besides, the “% Inhibition (μ) at 1 μM” value on human μ-opiate receptor is 102%.

On to `CC(C)C(CC(=O)NCC(=O)N1CCC(c2cccs2)(N(C)C)CC1)c1c[nH]c2ccccc12` (stereo not shown) [Example 88, N-(2-(4-(dimethylamino)-4-(thiophen-2-yl)piperidin-1-yl)-2-oxoethyl)-3-(1H-indol-3-yl)-4-methylpentanamide], for which the inhibition at 1 µM came out at 92% at ORL1 receptor and 94% at human μ-opiate receptor.

On to `CC(C)C(CC(=O)N1CC(C(=O)N2CCC(c3ccccc3)(N(C)C)CC2)c2ccccc21)c1c[nH]c2ccccc12` (stereo not shown) [Example 89, 1-(3-(4-(dimethylamino)-4-phenylpiperidine-1-carbonyl)indolin-1-yl)-3-(1H-indol-3-yl)-4-methylpentan-1-one], for which the inhibition at 1 µM at ORL1 receptor is 91%; at human μ-opiate receptor it was 94%.

Regarding `CN(CCN1CCC(c2ccccc2)(N(C)C)CC1)C(=O)Cc1c[nH]c2cc(F)ccc12` [Example 90, N-(2-(4-(dimethylamino)-4-phenylpiperidin-1-yl)ethyl)-2-(6-fluoro-1H-indol-3-yl)-N-methylacetamide], the “% Inhibition (ORL1) at 1 μM” value at ORL1 receptor was found to be 90%. Also, the “% Inhibition (μ) at 1 μM” value at human μ-opiate receptor came to 99%.

For `CC(CC(=O)NC(CC(=O)N1CCC(c2cccs2)(N(C)C)CC1)c1ccccc1)c1c[nH]c2ccccc12` (stereo not shown) [Example 91, N-(3-(4-(dimethylamino)-4-(thiophen-2-yl)piperidin-1-yl)-3-oxo-1-phenylpropyl)-3-(1H-indol-3-yl)butanamide], the inhibition at 1 µM came out at 89% at ORL1 receptor and 97% on human μ-opiate receptor.

`CC(CC(=O)NCCC(=O)N1CCC(c2ccccc2)(N(C)C)CC1)c1c[nH]c2ccccc12` (stereo not shown) [Example 92, N-(3-(4-(dimethylamino)-4-phenylpiperidin-1-yl)-3-oxopropyl)-3-(1H-indol-3-yl)butanamide]: the results for the inhibition at 1 µM on ORL1 receptor and on human μ-opiate receptor were 88% and 93%, respectively.

Regarding `CN(C)C1(c2cccs2)CCN(C(=O)CC(NC(=O)Cc2c[nH]c3cc(F)ccc23)c2ccccc2)CC1` (stereo not shown) [Example 93, N-(3-(4-(dimethylamino)-4-(thiophen-2-yl)piperidin-1-yl)-3-oxo-1-phenylpropyl)-2-(6-fluoro-1H-indol-3-yl)acetamide], the inhibition at 1 µM came to 88% at ORL1 receptor and 97% at human μ-opiate receptor.

These data come from patent US9206156B2, “Substituted indole derivatives” (GRÜNENTHAL GMBH, priority 2008, dated 2015).
